In PubChem BioAssay (NCI):
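Exposure lasted 48 hours, with cells grown in 96-well plates and compounds tested at five concentrations. The concentration for 50% growth inhibition is given as GI50. TGI is the concentration that stops growth completely.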

Assays:
Test in all cases: inhibition of tumour cell growth, NCI panel, 48 h
A498 renal = system: A498 renal
HOP-92 NSCLC = system: HOP-92 NSCLC
HT29 colon = system: HT29 colon
M14 melanoma = system: M14 melanoma
MCF7 breast = system: MCF7 breast
MDA-MB-231 breast = system: MDA-MB-231 breast
MOLT-4 leukemia = system: MOLT-4 leukemia
SF-295 CNS = system: SF-295 CNS
SNB-75 CNS = system: SNB-75 CNS
TK-10 renal = system: TK-10 renal

SMILES | GI50 (A498 renal) [µM] | TGI (A498 renal) [µM] | GI50 (HOP-92 NSCLC) [µM] | TGI (HOP-92 NSCLC) [µM] | GI50 (HT29 colon) [µM] | TGI (HT29 colon) [µM] | GI50 (M14 melanoma) [µM] | TGI (M14 melanoma) [µM] | GI50 (MCF7 breast) [µM] | TGI (MCF7 breast) [µM] | GI50 (MDA-MB-231 breast) [µM] | TGI (MDA-MB-231 breast) [µM] | GI50 (MOLT-4 leukemia) [µM] | TGI (MOLT-4 leukemia) [µM] | GI50 (SF-295 CNS) [µM] | TGI (SF-295 CNS) [µM] | GI50 (SNB-75 CNS) [µM] | TGI (SNB-75 CNS) [µM] | GI50 (TK-10 renal) [µM] | TGI (TK-10 renal) [µM]
C[C@@H]1CN(Cc2ccc(/C=C/c3n[nH]c4ccc5nc(-c6cn[nH]c6C(F)(F)F)c6c(c5c34)CCCC6)cc2)C[C@H](C)O1 | 1.21 | 6.51 | 3.12 | 17.9 | 2.77 | 7.82 | 3.19 | 14.6 | 1.53 | 14.9 | 3.24 | 15.5 | 2.6 | 23.2 | 3.35 | 18.1 | 0.643 | 10.1 | 4.92 | 17.7
N#Cc1cc2cc3c4c(c2oc1=O)CCCN4CCC3 |  | > 100 |  | > 100 |  | > 100 |  | > 100 |  | > 100 |  | > 100 |  | > 100 |  | > 100 |  | > 100 |  | > 100
COc1ccc2nc(-c3ccccc3)cc(Nc3ccc(/C(C)=N/O)cc3)c2c1 | 2.03 | 4.98 | 0.821 | 22.5 | 2.7 | > 100 | 1.46 | 2.78 | 3.35 | > 19.7 | 0.733 | 2.07 | 3.73 | > 100 | 2.21 | 5.23 | 3.54 | > 100 | 1.63 | 3.42
CC(C)(C)c1ccc(C(=O)N/N=C/c2ccc(O)cc2O)cc1 | 1.27 | 6.09 | 1.65 | 13.7 | 0.885 | 8.33 | 0.409 | 9.83 | 0.322 | 12.7 | 0.5 | 5.83 | 0.346 | 14.9 | 0.327 | 3.22 | 0.584 | 13.6 | 0.73 | > 53.5
COc1cc(Nc2ncc3c(n2)-c2ccc(Cl)cc2C(c2c(F)cccc2OC)=NC3)ccc1C(=O)O | 0.211 | 2.55 | 2.35 | 14.1 | 2.24 | 23.8 | 13.6 | 42.8 | 0.0469 | > 100 | 3.07 | > 100 | 8.09 | > 75.9 | 0.0719 | > 64.1 | 2.23 | 24.6 | 4.61 | 24.4
c1ccc(-c2n(Cc3ccc4ccccc4n3)c3ccccc3[n+]2Cc2ccc3ccccc3n2)cc1 | 0.147 | 1.02 | 0.143 | 0.563 | 0.221 | 1.23 | 0.289 | 1.43 | 0.274 | 1.2 | 0.269 | 1.3 | 0.443 | 2.09 | 0.358 | 1.39 | 0.229 | 0.937 | 0.426 | 1.91
Cc1ccc(C(=O)Nc2ccc(CN3CCN(C)CC3)c(C(F)(F)F)c2)cc1C#Cc1cncc2ncccc12 | 0.209 | 0.656 | 0.147 | 1.28 | 0.142 | 1.41 | 0.0877 | 0.9 | 1.46 | 3.44 | 0.177 | 1.1 | 0.353 | 16.8 | 1.2 | 16.2 | 0.264 | 1.39 | 0.253 | 1.41
COc1ccc(/C=C/c2nc(N3CCOCC3)c3cc(F)c(F)cc3n2)cc1OC | 3.41 | > 100 | 4.13 | 87.2 |  |  | 2.75 | 26.8 | 2.54 | > 100 | 6.56 | > 100 | 4.11 | > 100 | 3.9 | > 100 | 6.14 | > 100 | 4.84 | > 100
COC(=O)c1[nH]nc(-c2ccccc2)c1N1CCCCC1 | 17.4 | 57.2 | 19 | 64 | 57.9 | > 100 | 57 | > 100 | 29.5 | > 100 | 31.2 | 65.9 | 62.6 | > 100 | 45.7 | > 100 | 30.6 | 84.7 | 32.5 | 68.2
Clc1ccccc1-c1nc2ccccc2[nH]1 | 59.2 | > 100 | 42.1 | > 100 | > 100 | > 100 | > 100 | > 100 | > 100 | > 100 | > 100 | > 100 | > 100 | > 100 | 43.3 | > 100 | > 100 | > 100 | > 100 | > 100
Cc1c(N2C(=O)/C(=C\c3ccc(O)cc3)N=C2c2ccccc2)c(=O)n(-c2ccccc2)n1C | > 100 | > 100 | > 100 | > 100 | > 100 | > 100 | > 100 | > 100 | > 100 | > 100 | > 100 | > 100 | > 100 | > 100 | > 100 | > 100 | > 100 | > 100 | > 100 | > 100
COc1cc(C(=O)/C=C/c2c(-c3ccc(F)cc3)nc3sccn23)cc(OC)c1OC | 2.35 | 6.16 | 1.7 |  | 2.53 | 6.11 | 2.33 | 9.44 | 1.9 | 7.88 | 2.34 | > 29.8 | 2.16 | 6.35 | 2.37 | 10.6 | 1.83 | 7.31 | 3.6 | > 24.6
